Assay results published in PubChem BioAssay AID1320 (NMMLSC, 2008).
Calls of active or inactive are those of the source. How the calls were made is not given here.

target: Bcl-2-related protein A1 (Homo sapiens) (UniProt Q16548); test: inhibitors of Bim binding to Bfl-1, dose response, biochemical, multiplexed, bead-based flow cytometry (AID 1320); conditions: Bim peptide-Bfl-1 binding, fluorescence; further: test concentration not given here
Sequence (Q16548 whole entry, looked up): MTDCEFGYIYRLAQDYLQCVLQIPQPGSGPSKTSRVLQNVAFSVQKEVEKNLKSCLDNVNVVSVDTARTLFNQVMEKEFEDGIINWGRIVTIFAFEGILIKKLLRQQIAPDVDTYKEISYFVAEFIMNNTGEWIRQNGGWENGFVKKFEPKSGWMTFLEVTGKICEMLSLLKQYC

| SMILES | percent span (inhibition) |
| --- | --- |
| CCOC(=O)c1nc(Nc2ccc(Nc3ccccc3)cc2)c2ccccc2n1 | inactive |
| COc1ccc(CC(=O)Nc2ccc(-c3nc4cc(C)ccc4o3)c(O)c2)cc1OC | inactive |
| Cc1ccc(/C=N/N(C)C2=NS(=O)(=O)c3ccccc32)o1 | inactive |
| Cc1cc(C)cc(-n2c(C)nc3cc(C(=O)O)ccc32)c1 | inactive |
| NC(=O)CSc1nnc(Cn2cnc3ccccc32)o1 | inactive |
| CCOC(=O)c1c2c3c(c(Cl)ccc3[nH]c1=O)C(=O)c1ccccc1-2 | inactive |
| Cc1ccc(S(=O)(=O)N2CCCCC2)cc1NC(=O)COC(=O)c1ccccc1F | inactive |
| CN1/C(=C\C(=O)Nc2ccc(Cl)cc2)C(C)(C)c2ccccc21 | inactive |
| O=C(c1cnccn1)N(Cc1cccs1)C1(C(=O)NC2CCCCC2)CCCCC1 | inactive |
| O=C(Cc1ccccc1)OCCNC(=O)c1cccnc1 | inactive |
| CCCOc1ccc(-c2c(C(=O)N/N=C/c3ccc(OC)cc3)nnn2-c2nonc2N)cc1 | inactive |
| COC(=O)c1ccc(-n2nnnc2SCC(=O)Nc2cc(OC)ccc2OC)cc1 | inactive |
| CCOc1ccc(C2=Nn3c(nnc3-c3ccco3)SC2)cc1 | inactive |
| Cc1sc2nc(C(C)C)nc(SCC(=O)N3c4ccccc4CC3C)c2c1C (configuration not stated) | inactive |
| Cc1ccc(CNc2ccc3c(c2)OCO3)c(C)c1 | inactive |
| CCN(CC)c1ccc(NC(=O)COc2ccccc2C#N)cc1S(=O)(=O)Nc1ccccc1OC | inactive |
| CN1C2C=C3C(C#N)=C(N)C(C#N)(C#N)[C@@H](c4ccsc4)[C@@H]3C1CC2 (some centres not stated) | inactive |
| COc1ccccc1OCc1ccc(C(=O)Nc2ccccc2F)cc1 | inactive |
| Cc1cc(-c2csc(N)n2)c(C)n1C | inactive |
| COc1ccc(C2(NC(C)=O)CCN(C(=O)c3ccco3)CC2)cc1 | inactive |
| Cc1ccccc1-c1nc(-c2ccc(NC(=O)c3ccc4c(c3)OCO4)cc2)no1 | inactive |
| CCN(CC)c1nc(N)nc(N(c2ccccc2)c2ccccc2)n1 | inactive |
| CCOC(=O)C1=C(CC)Nc2ccccc2N=C1NC(=O)c1ccc(S(=O)(=O)N2CCOCC2)cc1 | inactive |
| Cc1cc(N2CCN(C)CC2)nc2ccc(NC(=S)N3CCC4(CC3)OCCO4)cc12 | inactive |

| SMILES | percent span (inhibition) |
| --- | --- |
| Cc1ccc(NC(=O)CC2S/C(=N/N=C/c3c[nH]c4ccccc34)NC2=O)cc1 (configuration not stated) | inactive |
| S=C(NCCc1ccccc1)NCCc1ccccc1 | inactive |
| Cc1ccc(-c2cc(C(=O)OCC(=O)N(C)C3CCS(=O)(=O)C3)c3ccccc3n2)o1 (configuration not stated) | inactive |
| COc1ccc(-c2noc(COc3ccc4c(c3)OCO4)n2)cc1OC | inactive |
| COc1ccc(-c2csc(NC(=O)/C(N=Nc3ccccc3)=C(\C)O)n2)cc1 | inactive |
| Cn1c(OCc2cccnc2)nc2c1c(=O)n(Cc1ccccc1)c(=O)n2C | inactive |
| O=C(Nc1ccncc1)c1cc2ccccc2o1 | inactive |
| O=C(C1=NN[C@@H]2C(=O)N(c3ccccc3C(F)(F)F)C(=O)[C@H]12)c1ccc2ccccc2n1 | inactive |
| CC1(C)Cc2c(ccc3ccccc23)/C(=C/C(=O)N2CCCCC2)N1 | inactive |
| CCNC(=S)Nc1ccc(OCC)cc1 | inactive |
| Cc1ccc(-c2cc(C(=O)Nc3ccccn3)c3ccccc3n2)o1 | inactive |
| CCCc1nnc2n1N=C(c1ccc(-c3cc(Cl)ccc3Cl)o1)CS2 | inactive |
| O=C(COc1ccccc1)N1CCN(c2ncnc3c2cnn3-c2ccccc2)CC1 | inactive |
| O=c1nc2c(O)cccn2c2c1c(=O)[nH]c1ccccc12 | inactive |
| COc1ccc(OC)c(-n2c(=O)c3ccccc3c3ccccc3c2=O)c1 | inactive |
| C/C(=N\NC(=O)COc1ccc(C(C)(C)C)cc1)c1ccc2c(c1)OCCO2 | inactive |
| O=C1c2ccccc2C(=O)N1CN(C(=O)COc1ccc(Cl)cc1Cl)c1cccc(F)c1 | inactive |
| COc1cc(NC(=S)NCCCO)c(OC)cc1Cl | inactive |
| CCOc1cc(S(=O)(=O)N2CCCCC2)ccc1F | inactive |
| COc1ccc(NC(=O)COc2ncnc3ccccc23)cc1S(=O)(=O)N1CCOCC1 | inactive |
| COc1ccc2nc(C)cc(SCC(=O)N/N=C/c3ccc(O)c(O)c3)c2c1 | inactive |
| O=C(O)C1=C[C@H](C2CC2)C[C@H](OCCCCO)O1 | inactive |
| CCCn1c(C)cc(-c2csc(N)n2)c1C | inactive |
| CC(C)Cc1cc(-c2ccco2)c(C#N)c(N)n1 | inactive |

| SMILES | percent span (inhibition) |
| --- | --- |
| Cc1cc(C)c2nc3nc(C)c(C)cc3c(N)c2c1 | inactive |
| O=C(c1ccccc1NS(=O)(=O)c1ccc(Br)s1)N1CCCC1 | inactive |
| CN1CCN(c2ccccc2N)CC1 | inactive |
| COc1ccccc1-n1c(-c2ccc(Cl)cc2)c[nH]c1=S | inactive |
| NC(=O)c1c(NC(=O)C2CCCO2)sc2c1CCCC2 (configuration not stated) | inactive |
| Cc1cccc(/C=N/N(CCO)C2=NS(=O)(=O)c3ccccc32)c1 | inactive |
| CC1CC2=C(NC(=S)NC2c2ccccc2F)/C(=C/c2ccccc2F)C1 (configuration not stated) | inactive |
| CN(C)c1cccc(NC(=O)C2(C)CC2(Cl)Cl)c1 (configuration not stated) | inactive |
| COCc1cc(CN2CCCC(CNC(=O)c3ccc(F)cc3)C2)ccc1OC (configuration not stated) | inactive |
| COc1ccc(C)cc1-n1c(=O)c2ccccc2c2ccccc2c1=O | inactive |
| c1csc(C2=Nn3c(nnc3-c3ccncc3)SC2)c1 | inactive |
| CC1(C)CC(NC(=O)COc2ccc([N+](=O)[O-])cc2)CC(C)(C)N1 | inactive |
| O=[N+]([O-])c1ccc(-c2cn(-c3ccc(Cl)cc3)c(=S)[nH]2)cc1 | inactive |
| COc1ccc(N2CC(C(=O)Nc3nnc(SCC(=O)c4ccccc4)s3)CC2=O)cc1 (configuration not stated) | inactive |
| Cc1cc(C)c2nc3nc(C)cc(C)c3c(N)c2c1 | inactive |
| Cc1ccc(Nc2nc(C)cs2)cc1 | inactive |
| CCN(CC)c1ccc(-c2nn3c(-c4cccnc4)nnc3s2)cc1 | inactive |
| Cc1cc(C)cc(NS(=O)(=O)c2ccc3c(c2)c(=O)n(C)c(=O)n3C)c1 | inactive |
| Cc1nc(=S)c2ccccc2[nH]1 | inactive |
| Cc1ccc(Nc2nc(-c3ccccc3)c(CC(=O)O)s2)cc1 | inactive |
| O=C1N/C(=C/c2cccn2-c2ccccc2)C(=O)N1Cc1ccc(F)cc1 | inactive |
| CN(/N=C/c1cccnc1)C1=NS(=O)(=O)c2ccccc21 | inactive |
| CCOc1ccccc1C(=O)NC1CC2CCCC(C1)N2C1CC1 (configuration not stated) | inactive |
| CC1=CC(=O)c2ccccc2C1=O | inactive |
